# Structures can show the parent of a compound that is named as a salt.
# Molecular target: human LOXL2 (Homo sapiens (Human), UniProt Q9Y4K0)
# Assay: Human LOXL2 amine oxidase activity assay (Amplex Red)
# Type: biochemical
# Conditions: concentrated conditioned media from CHO cells stably expressing human LOXL2; 2 h at 37° C. with compound; DAP substrate
# Experimental: Example B-1: Human LOXL2 Amine Oxidase Activity Assay
# LOXL2 amine oxidase activity is evaluated by measuring Amplex Red fluorescence using 10-20× concentrated conditioned media from CHO cells stably expressing human LOXL2. To assay for amine oxidase activity, 10 μL of the concentrated conditioned media is incubated with 2 μL of test compound in DMSO and 73 μL Assay Buffer (50 mM Borate Buffer, pH8) for 2 h at 37° C. After the 2 h incubation, 5 ul of 10 mM 1,5-Diaminopentane (DAP) diluted in Assay Buffer and 10 μl of Amplex Red Mix (8.5 μl Assay Buffer+0.5 μl of 10 mM Amplex Red+1 μl of 500 U/ml Horseradish Peroxidase) are added and the plate mixed and immediately placed on the FlexStaion for fluorescence measurements. Fluorescence is read in kinetic mode every 2 min for 1 hour at excitation=544 and emission=590. The amine oxidase activity is calculated from the slope of the linear portion of the curve.
# Sequence of human LOXL2 (Q9Y4K0 26-774): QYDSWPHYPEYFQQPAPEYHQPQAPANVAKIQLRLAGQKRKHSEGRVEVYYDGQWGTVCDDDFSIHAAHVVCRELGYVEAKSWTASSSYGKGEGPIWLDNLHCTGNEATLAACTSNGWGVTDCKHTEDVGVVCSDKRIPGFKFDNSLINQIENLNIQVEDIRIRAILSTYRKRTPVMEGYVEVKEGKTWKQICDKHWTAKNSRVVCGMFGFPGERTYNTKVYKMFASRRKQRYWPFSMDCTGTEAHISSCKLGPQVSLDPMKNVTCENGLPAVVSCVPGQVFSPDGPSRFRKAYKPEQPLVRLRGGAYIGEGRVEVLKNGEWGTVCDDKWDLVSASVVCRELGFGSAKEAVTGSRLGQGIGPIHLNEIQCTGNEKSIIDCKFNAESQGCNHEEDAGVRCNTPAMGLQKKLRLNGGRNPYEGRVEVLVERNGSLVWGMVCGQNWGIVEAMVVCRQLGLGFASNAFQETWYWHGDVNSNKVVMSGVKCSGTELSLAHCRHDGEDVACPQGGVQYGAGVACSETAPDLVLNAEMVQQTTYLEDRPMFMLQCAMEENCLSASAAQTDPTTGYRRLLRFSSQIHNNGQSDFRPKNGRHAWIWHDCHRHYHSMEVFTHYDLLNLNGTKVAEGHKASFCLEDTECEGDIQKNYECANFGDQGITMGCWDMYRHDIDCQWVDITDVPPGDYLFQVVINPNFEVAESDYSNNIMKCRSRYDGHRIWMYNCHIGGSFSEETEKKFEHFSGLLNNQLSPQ
row,IC50 [nM],Compound
1,< 300,"NCc1cc(O[C@H]2CCCN(C(=O)Nc3ccccc3)C2)nc(C(F)(F)F)c1 [Compound 1-44, (S)-3-((4-(Aminomethyl)-6-(trifluoromethyl)pyridin-2-yl)oxy)-N-phenylpiperidine-1-carboxamide trifluoroacetate]"
2,< 300,"NCc1cc(OCc2cccc(C(=O)N3C[C@@H](O)[C@H](F)C3)c2)nc(C(F)(F)F)c1 (racemic) [Compound 1-36, Racemic-trans-(3-(((4-(aminomethyl)-6-(trifluoromethyl)pyridin-2-yl)oxy)methyl)phenyl)(3-fluoro-4-hydroxypyrrolidin-1-yl)methanone hydrochloride]"
3,< 300,"NCc1cc(Oc2cncc(C(=O)N3CC[C@@H](N)C3)c2)nc(C(F)(F)F)c1 [Compound 1-54, (R)-(5-((4-(Aminomethyl)-6-(trifluoromethyl)pyridin-2-yl)oxy)pyridin-3-yl)(3-aminopyrrolidin-1-yl)methanone dihydrochloride]"
4,< 300,"NCc1cc(Oc2cccc(-c3ccccc3)c2)nc(C(F)(F)F)c1 [Compound 1-2, (2-([1,1′-Biphenyl]-3-yloxy)-6-(trifluoromethyl)pyridin-4-yl)methanamine trifluoroacetate]"
5,< 300,"NCc1cc(Oc2cccc(C(=O)N3C[C@@H](F)[C@@H](O)C3)c2)nc(C(F)(F)F)c1 (single isomer, unassigned) [Compound 1-250, (R,S) or (S,R)-cis-(3-((4-(Aminomethyl)-6-(trifluoromethyl)pyridin-2-yl)oxy)phenyl)(3-fluoro-4-hydroxypyrrolidin-1-yl)methanone hydrochloride]"
6,< 300,"C#CCCCCNC(=O)c1cccc(Oc2cc(CN)cc(C(F)(F)F)n2)c1 [Compound 1-216, 3-((4-(Aminomethyl)-6-(trifluoromethyl)pyridin-2-yl)oxy)-N-(hex-5-yn-1-yl)benzamide trifluoroacetate]"
7,< 300,"NCc1cc(O[C@@H]2CCN(C(=O)Nc3ccccc3)C2)nc(C(F)(F)F)c1 [Compound 1-39, (R)-3-((4-(Aminomethyl)-6-(trifluoromethyl)pyridin-2-yl)oxy)-N-phenylpyrrolidine-1-carboxamide trifluoroacetate]"
8,< 300,"NCc1cc(Oc2cccc(C(=O)N3CC[C@@H](CO)C3)c2)nc(C(F)(F)F)c1 [Compound 1-26, (R)-(3-((4-(Aminomethyl)-6-(trifluoromethyl)pyridin-2-yl)oxy)phenyl)(3-(hydroxymethyl)pyrrolidin-1-yl)methanone hydrochloride]"
9,< 300,"NCc1cc(Oc2cccc(C(=O)N3C[C@@H](F)[C@@H](O)C3)c2)nc(C(F)(F)F)c1 (single isomer, unassigned) [Compound 1-251, (R,S) or (S,R)-cis-(3-((4-(Aminomethyl)-6-(trifluoromethyl)pyridin-2-yl)oxy)phenyl)(3-fluoro-4-hydroxypyrrolidin-1-yl)methanone hydrochloride]"
10,< 300,"NCc1cc(Oc2cccc(-n3ccccc3=O)c2)nc(C(F)(F)F)c1 [Compound 1-169, 1-(3-((4-(Aminomethyl)-6-(trifluoromethyl)pyridin-2-yl)oxy)phenyl)pyridin-2(1H)-one]"
11,< 300,"NCc1cc(Oc2cccc(C(=O)N[C@H]3COCC[C@@H]3O)c2)nc(C(F)(F)F)c1 [Compound 1-208, 3-((4-(Aminomethyl)-6-(trifluoromethyl)pyridin-2-yl)oxy)-N-((3S,4S)-4-hydroxytetrahydro-2H-pyran-3-yl)benzamide hydrochloride]"
12,< 300,"NCc1cc(Oc2cccc(C(=O)Nc3ncco3)c2)nc(C(F)(F)F)c1 [Compound 1-227, 3-((4-(Aminomethyl)-6-(trifluoromethyl)pyridin-2-yl)oxy)-N-(oxazol-2-yl)benzamide hydrochloride]"
13,300 to 1000,"NCc1cc(Oc2cccc3c2ccn3CC(=O)N2CCCCC2)nc(C(F)(F)F)c1 [Compound 1-56, 2-(4-((4-(Aminomethyl)-6-(trifluoromethyl)pyridin-2-yl)oxy)-1H-indol-1-yl)-1-(piperidin-1-yl)ethanone]"
14,< 300,"N#CCCNC(=O)c1cccc(Oc2cc(CN)cc(C(F)(F)F)n2)c1 [Compound 1-198, 3-((4-(Aminomethyl)-6-(trifluoromethyl)pyridin-2-yl)oxy)-N-(2-cyanoethyl)benzamide hydrochloride]"
15,< 300,"NCc1cc(NC(=O)c2cccc(C(=O)N3CC[C@H](O)C3)c2)nc(C(F)(F)F)c1 [Compound 1-241, (S)—N-(4-(Aminomethyl)-6-(trifluoromethyl)pyridin-2-yl)-3-(3-hydroxypyrrolidine-1-carbonyl)benzamide trifluoroacetate]"
16,< 300,"NCc1cc(Oc2cccc(C(=O)N3CCC[C@H](CO)C3)c2)nc(C(F)(F)F)c1 [Compound 1-203, (S)-(3-((4-(Aminomethyl)-6-(trifluoromethyl)pyridin-2-yl)oxy)phenyl)(3-(hydroxymethyl)piperidin-1-yl)methanone hydrochloride]"
17,< 300,"Cn1cc(-n2ccc3c(Oc4cc(CN)cc(C(F)(F)F)n4)cccc32)cn1 [Compound 1-37, (2-((1-(1-Methyl-1H-pyrazol-4-yl)-1H-indol-4-yl)oxy)-6-(trifluoromethyl)pyridin-4-yl) methanamine hydrochloride]"
18,< 300,"CCc1ccc(NC(=O)c2cccc(Oc3cc(CN)cc(C(F)(F)F)n3)c2)cc1 [Compound 1-246, 3-((4-(Aminomethyl)-6-(trifluoromethyl)pyridin-2-yl)oxy)-N-(4-ethylphenyl)benzamide hydrochloride]"
19,> 1000,"NCc1cc(-n2ccccc2=O)nc(C(F)(F)F)c1 [Compound 1-161, 4′-(Aminomethyl)-6′-(trifluoromethyl)-2H-[1,2′-bipyridin]-2-one hydrochloride]"
20,< 300,"NCc1cc(Oc2cccc(C(=O)N3CC=CC3)c2)nc(C(F)(F)F)c1 [Compound 1-215, (3-((4-(Aminomethyl)-6-(trifluoromethyl)pyridin-2-yl)oxy)phenyl)(2,5-dihydro-1H-pyrrol-1-yl)methanone hydrochloride]"
21,< 300,"NCc1cc(O[C@H]2CCCN(C(=O)c3cccnc3)C2)nc(C(F)(F)F)c1 [Compound 1-49, (S)-(3-((4-(Aminomethyl)-6-(trifluoromethyl)pyridin-2-yl)oxy)piperidin-1-yl)(pyridin-3-yl)methanone trifluoroacetate]"
22,< 300,"NCc1cc(Oc2cccc(C(=O)N3CC[C@@H](F)C3)c2)nc(C(F)(F)F)c1 [Compound 1-212, (R)-(3-((4-(Aminomethyl)-6-(trifluoromethyl)pyridin-2-yl)oxy)phenyl)(3-fluoropyrrolidin-1-yl)methanone hydrochloride]"
23,> 1000,"N=C(N)NC(=O)Cn1ccc2c(Oc3cc(CN)cc(C(F)(F)F)n3)cccc21 [Compound 1-234, 2-(4-((4-(Aminomethyl)-6-(trifluoromethyl)pyridin-2-yl)oxy)-1H-indol-1-yl)-N-carbamimidoylacetamide dihydrochloride]"
24,< 300,"N#CC1CN(C(=O)c2cccc(Oc3cc(CN)cc(C(F)(F)F)n3)c2)C1 [Compound 1-199, 1-(3-((4-(Aminomethyl)-6-(trifluoromethyl)pyridin-2-yl)oxy)benzoyl)azetidine-3-carbonitrile trifluoroacetate]"

row,Compound,IC50 [nM]
1,"NCc1cc(Oc2cccc(C(=O)N3CC[C@@H](O)C3)c2)nc(C(F)(F)F)c1 [Compound 1-18, (R)-(3-((4-(Aminomethyl)-6-(trifluoromethyl)pyridin-2-yl)oxy)phenyl)(3-hydroxypyrrolidin-1-yl)methanone hydrochloride]",< 300
2,"NCc1cc(-c2cccnc2)nc(C(F)(F)F)c1 [Compound 1-1, (6-(Trifluoromethyl)-[2,3′-bipyridin]-4-yl)methanamine trifluoroacetate]",< 300
3,"NCc1cc(Oc2cccc(C(=O)N3CC[C@@H](N)C3)c2)nc(C(F)(F)F)c1 [Compound 1-22, (R)-(3-((4-(Aminomethyl)-6-(trifluoromethyl)pyridin-2-yl)oxy)phenyl)(3-aminopyrrolidin-1-yl)methanone dihydrochloride]",< 300
4,"NCc1cc(Oc2cccc(C(=O)NCc3cc4ccccc4s3)c2)nc(C(F)(F)F)c1 [Compound 1-10, 3-((4-(Aminomethyl)-6-(trifluoromethyl)pyridin-2-yl)oxy)-N-(benzo[b]thiophen-2-ylmethyl)benzamide hydrochloride]",< 300
5,N′-(4-(Aminomethyl)-6-(trifluoromethyl)pyridin-2-yl)-N^3-(2-(methylsulfonyl)ethyl)isophthalamide trifluoroacetate [Compound 1-242],< 300
6,"NCc1cc(Oc2cccc(C(=O)NCCn3cncn3)c2)nc(C(F)(F)F)c1 [Compound 1-14, N-(2-(1H-1,2,4-Triazol-1-yl)ethyl)-3-((4-(aminomethyl)-6-(trifluoromethyl)pyridin-2-yl)oxy)benzamide hydrochloride]",< 300
7,"CN(C)[C@@H]1CN(C(=O)c2cccc(Oc3cc(CN)cc(C(F)(F)F)n3)c2)C[C@H]1O (racemic) [Compound 1-23, Racemic-trans-(3-((4-(aminomethyl)-6-(trifluoromethyl)pyridin-2-yl)oxy)phenyl)(-3-(dimethylamino)-4-hydroxypyrrolidin-1-yl)methanone hydrochloride]",< 300
8,"Cl.[2H]C([2H])(N)c1cc(Oc2cccc(C(=O)Nc3ccccc3)c2)nc(C(F)(F)F)c1 [Compound 1-8, 3-((4-(Aminomethyl-d2)-6-(trifluoromethyl)pyridin-2-yl)oxy)-N-phenylbenzamide hydrochloride]",< 300

# — patent US11072585B2 (PharmAkea, Inc., priority 2015, dated 2021)
